The assay deals with recombinant human BACE-1 (Homo sapiens, UniProt P56817). The assay can be described thus: BACE-1 FRET peptide cleavage assay. In kind it is biochemical. Particulars: for IC50, inhibition of cleavage of FRET peptide by BACE-1: FRET peptide with Swedish variant, pH 4.5, 2 h, 25 °C, triplicate; for inhibitory activity against BACE-1 cleavage of FRET peptide, in words: qualitative statement.

Structures can show the parent of a compound that is named as a salt.

Sequence of recombinant human BACE-1 (P56817 46-501): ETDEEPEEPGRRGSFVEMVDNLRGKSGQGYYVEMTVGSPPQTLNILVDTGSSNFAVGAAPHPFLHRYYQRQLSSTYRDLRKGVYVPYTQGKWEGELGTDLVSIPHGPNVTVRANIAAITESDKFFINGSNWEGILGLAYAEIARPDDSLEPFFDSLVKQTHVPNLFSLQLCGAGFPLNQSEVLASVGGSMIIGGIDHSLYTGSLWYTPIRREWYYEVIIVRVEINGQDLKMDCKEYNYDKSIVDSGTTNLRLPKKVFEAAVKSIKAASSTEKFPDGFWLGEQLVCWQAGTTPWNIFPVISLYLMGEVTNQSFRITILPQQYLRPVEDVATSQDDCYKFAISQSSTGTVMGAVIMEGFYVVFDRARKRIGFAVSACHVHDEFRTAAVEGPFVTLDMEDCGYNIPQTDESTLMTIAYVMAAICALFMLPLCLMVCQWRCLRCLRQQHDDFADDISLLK

“5-Aminopentyl [(α-L-idopyranosyluronate)-(1→4)-O-(2-acetamido-2-deoxy-6-O-sulfonate-α-D-glucopyranoside)-(1→4)-O-(2-O-sulfonato-α-L-idopyranosyl-uronate)]-(1→4)-2-deoxy-2-acetamido-6-O-sulfonate-α-D-glucopyranoside penta sodium salt [Compound 84]”: the “IC50, inhibition of cleavage of FRET peptide by BACE-1” value (“IC50, inhibition” for short) is on record as >300 µg/ml.
Same read-out and setting: the figure for “5-Aminopentyl [(β-D-glucopyranosyluronate)-(1→4)-O-(2-acetamido-2-deoxy-6-O-sulfonato- α-D-glucopyranoside)-(1→4)-O-(2-O-sulfonato-α-L-idopyranosyluronate)]-(1→4)-2-deoxy-2-acetamido-6-O-sulfonate-α-D-glucopyranoside penta sodium salt [Compound 85]” is 167 µg/ml; for “5-Aminopentyl [(β-D-glucopyranosyluronate)-(1→4)-O-(2-deoxy-2-sulfamino-6-O-sulfonate-α-D-glucopyranoside)-(1→4)-O-(2-O-sulfonate-α-L-idopyranosyluronate)-(1→4)-2-deoxy-2-sulfoamino-6-O-sulfonate-α-D-glucopyranoside heptasodium salt [Compound 86]” it is >300 µg/ml; for `NCCCCCOC1OC(COS(=O)(=O)O)C(OC2OC(C(=O)O)C(OC3OC(COS(=O)(=O)O)C(OC4OC(C(=O)O)C(OC5OC(COS(=O)(=O)O)C(OC6OC(C(=O)O)C(O)C(O)C6O)C(O)C5NS(=O)(=O)O)C(O)C4O)C(O)C3NS(=O)(=O)O)C(O)C2O)C(O)C1NS(=O)(=O)O` [Compound 69, 5-aminopentyl [(β-D-glucopyranosyluronate)-(1→4)-(2-deoxy-2-sulfoamino-6-O-sulfonato-α-D-glucopyranoside)-(1→4)-O-(α-L-idopyranosyluronate)-(1→4)-O-(2-deoxy-2-sulfoamino-6-O-sulfanate-α-D-glucopyranoside)-(1→4)-(β-D-glucopyranosyluronate)]-(1→4)-O-2-deoxy-N-sulfoamino-6-O-sulfonate-α-D-glucopyranoside nonasodium salt] it is 64 µg/ml.
As to `CC(=O)N[C@H]1[C@@H](O[C@H]2[C@H](O)[C@@H](O)[C@H](O[C@H]3[C@H](O)[C@@H](NC(C)=O)[C@@H](OCCCCCN)O[C@@H]3COS(=O)(=O)[O-])O[C@@H]2C(=O)[O-])O[C@H](COS(=O)(=O)[O-])[C@@H](O[C@@H]2O[C@H](C(=O)[O-])[C@@H](O)[C@H](O)[C@H]2O)[C@@H]1O.[Na+].[Na+].[Na+].[Na+]` [Compound 76], the “IC50, inhibition” value turned out to be 39 µg/ml and the “inhibitory activity against BACE-1 cleavage of FRET peptide, in words” value (from here on “inhibitory activity”) was “modest activity”.
The matching figures for `NCCCCCO[C@H]1O[C@H](COS(=O)(=O)[O-])[C@@H](O[C@@H]2O[C@H](C(=O)[O-])[C@@H](O[C@H]3O[C@H](COS(=O)(=O)[O-])[C@@H](O[C@@H]4O[C@H](C(=O)[O-])[C@@H](O)[C@H](O)[C@H]4O)[C@H](O)[C@H]3NS(=O)(=O)[O-])[C@H](O)[C@H]2O)[C@H](O)[C@H]1NS(=O)(=O)[O-].[Na+].[Na+].[Na+].[Na+].[Na+].[Na+]` [Compound 77]: 97 µg/ml and “modest activity”.
As for `CC(=O)N[C@H]1[C@@H](O[C@H]2[C@H](O)[C@@H](O)[C@H](O[C@H]3[C@H](O)[C@@H](NC(C)=O)[C@@H](OCCCCCN)O[C@@H]3COS(=O)(=O)[O-])O[C@H]2C(=O)[O-])O[C@H](COS(=O)(=O)[O-])[C@@H](O[C@@H]2O[C@H](C(=O)[O-])[C@@H](O)[C@H](O)[C@H]2O)[C@@H]1O.[Na+].[Na+].[Na+].[Na+]` [Compound 78], the “IC50, inhibition” value is given as >300 µg/ml.
With `NCCCCCO[C@H]1O[C@H](COS(=O)(=O)[O-])[C@@H](O[C@@H]2O[C@@H](C(=O)[O-])[C@@H](O[C@H]3O[C@H](COS(=O)(=O)[O-])[C@@H](O[C@@H]4O[C@H](C(=O)[O-])[C@@H](O)[C@H](O)[C@H]4O)[C@H](O)[C@H]3NS(=O)(=O)[O-])[C@H](O)[C@H]2O)[C@H](O)[C@H]1NS(=O)(=O)[O-].[Na+].[Na+].[Na+].[Na+].[Na+].[Na+]` [Compound 79], the “IC50, inhibition” value amounted to 240 µg/ml.
Regarding `CC(=O)N[C@H]1[C@@H](O[C@H]2[C@H](O)[C@@H](O)[C@H](O[C@H]3[C@H](O)[C@@H](NC(C)=O)[C@@H](OCCCCCN)O[C@@H]3COS(=O)(=O)[O-])O[C@@H]2C(=O)[O-])O[C@H](COS(=O)(=O)[O-])[C@@H](O[C@@H]2O[C@@H](C(=O)[O-])[C@@H](O)[C@H](O)[C@H]2O)[C@@H]1O.[Na+].[Na+].[Na+].[Na+]` [Compound 80], the “IC50, inhibition” value is on record as 104 µg/ml.
On to `NCCCCCO[C@H]1O[C@H](COS(=O)(=O)[O-])[C@@H](O[C@@H]2O[C@H](C(=O)[O-])[C@@H](O[C@H]3O[C@H](COS(=O)(=O)[O-])[C@@H](O[C@@H]4O[C@@H](C(=O)[O-])[C@@H](O)[C@H](O)[C@H]4O)[C@H](O)[C@H]3NS(=O)(=O)[O-])[C@H](O)[C@H]2O)[C@H](O)[C@H]1NS(=O)(=O)[O-].[Na+].[Na+].[Na+].[Na+].[Na+].[Na+]` [Compound 81, 5-aminopentyl [(L-α-idopyranosyluronate)-(1→4)-O-(2-deoxy-2-sulfoamino-6-O-sulfonate-α-D-glucopyranoside)-(1→4)-O-(β-D-glucopyranosyluronate)]-(1→4)-2-deoxy-2-sulfoamino-6-O-sulfonate-α-D-glucopyranoside hexasodium salt], for which the “IC50, inhibition” value was found to be 290 µg/ml.
In the case of `CC(=O)N[C@H]1[C@@H](O[C@H]2[C@H](O)[C@@H](O)[C@H](O[C@H]3[C@H](O)[C@@H](NC(C)=O)[C@@H](OCCCCCN)O[C@@H]3COS(=O)(=O)[O-])O[C@H]2C(=O)[O-])O[C@H](COS(=O)(=O)[O-])[C@@H](O[C@@H]2O[C@@H](C(=O)[O-])[C@@H](O)[C@H](O)[C@H]2O)[C@@H]1O.[Na+].[Na+].[Na+].[Na+]` [Compound 82], the “IC50, inhibition” value is given as 35 µg/ml and the “inhibitory activity” value is “modest activity”. Moreover, the “reduction of potency relative to compound 83” value (acetamido moieties instead of N-sulfates) is recorded as 10 fold.
In the case of `NCCCCCO[C@H]1O[C@H](COS(=O)(=O)[O-])[C@@H](O[C@@H]2O[C@@H](C(=O)[O-])[C@@H](O[C@H]3O[C@H](COS(=O)(=O)[O-])[C@@H](O[C@@H]4O[C@@H](C(=O)[O-])[C@@H](O)[C@H](O)[C@H]4O)[C@H](O)[C@H]3NS(=O)(=O)[O-])[C@H](O)[C@H]2O)[C@H](O)[C@H]1NS(=O)(=O)[O-].[Na+].[Na+].[Na+].[Na+].[Na+].[Na+]` [Compound 83], the “IC50, inhibition” value was 4.6 µg/ml and the “inhibitory activity” value is “relatively high potency”.
